In the assay the test system is BDF1 mice, P388 leukemia ip, median survival T/C. Briefly: NCI In Vivo Anticancer Drug Screen. Data for tumor model P388 Leukemia (intraperitoneal) in B6D2F1 (BDF1) mice. The following applies: endpoint: median survival time, higher = longer survival. The method in brief: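 Steps: implant the tumour, treat one group with compound and another with vehicle, record survival, then divide treated by control.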

The mark [1] stands for this setting: dose: 100.0 mg/kg/injection, schedule: Q04DX003 (ip), vehicle: Klucel (hydroxypropylcellulose) (HPC).
[2] abbreviates: dose: 200.0 mg/kg/injection, schedule: Q04DX003 (ip), vehicle: Klucel (hydroxypropylcellulose) (HPC).
The mark [3] stands for this setting: dose: 50.0 mg/kg/injection, schedule: Q01DX009 (ip), vehicle: saline.
The mark [4] stands for this setting: dose: 100.0 mg/kg/injection, schedule: Q01DX009 (ip), vehicle: saline.
Where [5] appears, read: dose: 25.0 mg/kg/injection, schedule: Q01DX009 (ip), vehicle: saline with Tween-80.
[6] abbreviates: dose: 50.0 mg/kg/injection, schedule: Q01DX009 (ip), vehicle: saline with Tween-80.
Where [7] appears, read: dose: 100.0 mg/kg/injection, schedule: Q01DX009 (ip), vehicle: saline with Tween-80.
The mark [8] stands for this setting: dose: 100.0 mg/kg/injection, schedule: Q04DX003 (ip), vehicle: saline with Tween-80.
Setting [9] is: dose: 200.0 mg/kg/injection, schedule: Q04DX003 (ip), vehicle: saline with Tween-80.
Setting [10] is: dose: 400.0 mg/kg/injection, schedule: Q04DX003 (ip), vehicle: saline with Tween-80.

SMILES strings stand for the structures. Where “and” joins values, the source holds several entries; their conditions need not be identical. Equal values may be shown once. Inconclusive results and toxic doses are left out. Residues, ends and D or L forms follow the SMILES beside them. *: point of attachment. Trt = c1ccc(C(c2ccccc2)(c2ccccc2)*)cc1; Bn = c1ccc(C*)cc1

With `Nc1ccccc1SC1CC(=O)N(c2ccccc2)C1=O` (stereo not drawn), the T/C runs as follows: (dose: 100.0 mg/kg/injection, schedule: Q01DX001 (ip), vehicle: Klucel (hydroxypropylcellulose) (HPC)) 100 % of control; (dose: 100.0 mg/kg/injection, schedule: Q01DX009 (ip), vehicle: Klucel (hydroxypropylcellulose) (HPC)) 116 % of control; under setting [1], 100 % of control; (dose: 200.0 mg/kg/injection, schedule: Q01DX001 (ip), vehicle: Klucel (hydroxypropylcellulose) (HPC)) 95 % of control; (dose: 200.0 mg/kg/injection, schedule: Q01DX009 (ip), vehicle: Klucel (hydroxypropylcellulose) (HPC)) 122 % of control; under setting [2], 95 % of control. In addition, the T/C is, setting by setting: (dose: 400.0 mg/kg/injection, schedule: Q01DX001 (ip), vehicle: Klucel (hydroxypropylcellulose) (HPC)) 95 % of control; (dose: 400.0 mg/kg/injection, schedule: Q01DX009 (ip), vehicle: Klucel (hydroxypropylcellulose) (HPC)) 105 % of control; (dose: 400.0 mg/kg/injection, schedule: Q04DX003 (ip), vehicle: Klucel (hydroxypropylcellulose) (HPC)) 95 % of control.
As to `O=C(NCCCl)OCC(F)(F)F`, the T/C by setting is: (dose: 50.0 mg/kg/injection, schedule: Q01DX005 (ip), vehicle: Klucel (hydroxypropylcellulose) (HPC)) 113 % of control; (dose: 100.0 mg/kg/injection, schedule: Q01DX005 (ip), vehicle: Klucel (hydroxypropylcellulose) (HPC)) 97 % of control; (dose: 200.0 mg/kg/injection, schedule: Q01DX005 (ip), vehicle: Klucel (hydroxypropylcellulose) (HPC)) 108 % of control.
`OC1CCC(O)C1(Cl)Cl` (stereo not drawn): the T/C is 109 % of control (dose: 25.0 mg/kg/injection, schedule: Q01DX009 (ip), vehicle: saline); 108 % of control under setting [3]; 98 % of control under setting [4].
As to `N#C[C@@H]1C2C=CC(CC2)[C@H]1C#N`, the T/C (dose: 0.29 mg/kg/injection, schedule: Q04DX003 (ip), vehicle: saline) was 95 % of control; the T/C (dose: 0.44 mg/kg/injection, schedule: Q04DX003 (ip), vehicle: saline) is 120 % of control; the T/C (dose: 0.66 mg/kg/injection, schedule: Q04DX003 (ip), vehicle: saline) is 100 % of control; the T/C (dose: 1.0 mg/kg/injection, schedule: Q04DX003 (ip), vehicle: saline) was 115 % of control; the T/C (dose: 1.5 mg/kg/injection, schedule: Q04DX003 (ip), vehicle: saline) is 100 % of control; the T/C (dose: 5.0 mg/kg/injection, schedule: Q04DX003 (ip), vehicle: saline with Tween-80) is 100 % of control.
Consider `O=C1c2ccccc2C(=O)C1C(C[N+](=O)[O-])c1ccccc1` (stereo not drawn), for which the T/C (dose: 25.0 mg/kg/injection, schedule: Q01DX005 (ip), vehicle: saline with Tween-80) was 118 % of control and the T/C (dose: 50.0 mg/kg/injection, schedule: Q01DX005 (ip), vehicle: saline with Tween-80) was 99 % of control.
For the molecule `CCOc1c([N+](=O)[O-])cc([N+](=O)[O-])c2ccccc12`, the T/C was 96 % of control under setting [5], 96 % of control under setting [6] and 93 % of control under setting [7].
Regarding `CS(=O)c1ncc2cnccn12` (stereo not drawn), the T/C runs as follows: (dose: 25.0 mg/kg/injection, schedule: Q04DX003 (ip), vehicle: water) 108 % of control; (dose: 50.0 mg/kg/injection, schedule: Q04DX003 (ip), vehicle: water) 100 % of control; (dose: 100.0 mg/kg/injection, schedule: Q01DX009 (ip), vehicle: water) 104 % of control; (dose: 100.0 mg/kg/injection, schedule: Q04DX003 (ip), vehicle: water) 108 % of control; (dose: 200.0 mg/kg/injection, schedule: Q01DX009 (ip), vehicle: water) 106 % of control.
For the molecule `CC(=O)Nc1ccc([N+](=O)[O-])c(NC(C)=O)n1`, the T/C runs as follows: (dose: 50.0 mg/kg/injection, schedule: Q04DX003 (ip), vehicle: Klucel (hydroxypropylcellulose) (HPC)) 110 % of control; under setting [1], 105 % of control; under setting [2], 100 % of control.
For `O=c1[nH]ncc2[nH]cnc12`, the T/C by setting is: (dose: 6.25 mg/kg/injection, schedule: Q01DX009 (ip), vehicle: saline with Tween-80) 98 % of control; (dose: 12.5 mg/kg/injection, schedule: Q01DX009 (ip), vehicle: saline with Tween-80) 107 % of control; under setting [5], 91 % of control; under setting [6], 104 % of control.
Take `COC(=O)C(CSC(c1ccccc1)(c1ccccc1)c1ccccc1)NC(=O)C(CSCc1ccccc1)NC(C)=O` (stereo not drawn) (Ac-Cys(Bn)-Cys(Trt)-OMe; configuration not given here): the T/C reads like this: (dose: 100.0 mg/kg/injection, schedule: Q01DX009 (ip), vehicle: other) 88 % of control; (dose: 200.0 mg/kg/injection, schedule: Q01DX009 (ip), vehicle: other) 93 % of control; (dose: 400.0 mg/kg/injection, schedule: Q01DX009 (ip), vehicle: other) 107 % of control.
Consider `CN1CCc2cc3c(cc2/C1=C1\OC(=O)c2c1ccc1c2OCO1)OCO3`, for which the T/C under setting [8] was 88 % of control, the T/C under setting [9] is 93 % of control and the T/C under setting [10] is 101 % of control.
As for `COc1cc(N)ccc1C(=O)O`, the T/C is, setting by setting: (dose: 0.39 mg/kg/injection, schedule: Q01DX009 (ip), vehicle: saline) 103 % of control; (dose: 0.78 mg/kg/injection, schedule: Q01DX009 (ip), vehicle: saline) 99 % of control; (dose: 3.12 mg/kg/injection, schedule: Q01DX009 (ip), vehicle: saline) 115 % of control; under setting [3], 95 % of control; under setting [4], 101 % of control; (dose: 200.0 mg/kg/injection, schedule: Q01DX009 (ip), vehicle: saline) 96 % of control. Further, the T/C (dose: 400.0 mg/kg/injection, schedule: Q01DX009 (ip), vehicle: saline) is 104 % of control.
For the molecule `N=Nc1c2ccccc2c2nc3c(N)[nH]nc(N)c3nc12`, the T/C by setting is: under setting [8], 97 % of control; under setting [10], 95 % of control.
For the molecule `COc1cc(C)c(NC(=O)Oc2ccccc2)c(C)c1`, the T/C under setting [8] is 104 % of control, the T/C under setting [9] was 104 % of control and the T/C under setting [10] is 104 % of control.
Turning to `O=C(/C=C/c1ccc(OCc2ccccc2)cc1)c1cccc(Cl)c1`, the T/C by setting is: under setting [6], 105 % of control; under setting [7], 96 % of control; (dose: 200.0 mg/kg/injection, schedule: Q01DX009 (ip), vehicle: saline with Tween-80) 89 % of control.
For the molecule `Cc1ccc(C)c(NC(=O)c2ccc(Cl)cc2Cl)c1`, the T/C (dose: 75.0 mg/kg/injection, schedule: Q01DX001 (ip), vehicle: other) was 90 % of control and the T/C (dose: 150.0 mg/kg/injection, schedule: Q01DX001 (ip), vehicle: other) was 90 % of control.
Turning to `Nc1ccc(O)c2ncccc12`, the T/C is, setting by setting: (dose: 7.5 mg/kg/injection, schedule: Q01DX010 (ip), vehicle: saline) 115 % of control; (dose: 15.0 mg/kg/injection, schedule: Q01DX010 (ip), vehicle: saline) 110 % of control.
For `CC1(C)COCN1CN1COCC1(C)C`, the T/C was 150 % of control (dose: 50.0 mg/kg/injection, schedule: Q04DX003 (ip), vehicle: saline) and 155 % of control (dose: 100.0 mg/kg/injection, schedule: Q04DX003 (ip), vehicle: saline).
As to `COc1ccc(CC2c3ccccc3CC[N+]2(C)C)cc1Oc1ccc(CC2c3ccccc3CC[N+]2(C)C)cc1` (stereo not drawn), the T/C (dose: 0.39 mg/kg/injection, schedule: Q04DX003 (ip), vehicle: saline) is 98 % of control; the T/C (dose: 0.78 mg/kg/injection, schedule: Q04DX003 (ip), vehicle: saline) was 105 % of control; the T/C (dose: 1.56 mg/kg/injection, schedule: Q04DX003 (ip), vehicle: saline with Tween-80) is 104 % of control.
On to `c1ccc2c(c1)[nH]c1nc3ccncc3nc12`, for which the T/C runs as follows: (dose: 50.0 mg/kg/injection, schedule: Q04DX003 (ip), vehicle: saline with Tween-80) 90 % of control; under setting [8], 95 % of control.
Regarding `O=C(O)C(Cc1ccccc1)N=Cc1c(O)ccc2ccccc12` (stereo not drawn), the T/C was 105 % of control under setting [8], 114 % of control under setting [9] and 89 % of control under setting [10].
On to `O=C(NO)c1cccnc1`, for which the T/C is 119 % of control (dose: 300.0 mg/kg/injection, schedule: Q01DX010 (ip), vehicle: water); 109 % of control and 118 % of control (dose: 400.0 mg/kg/injection, schedule: Q01DX010 (ip), vehicle: water); 150 % of control and 154 % of control (dose: 600.0 mg/kg/injection, schedule: Q01DX010 (ip), vehicle: water).
As for `CCC(=O)Oc1c(Cl)c(Cl)c(C#N)c(Cl)c1Cl`, the T/C was 108 % of control under setting [8] and 116 % of control under setting [9].

The values above are taken from PubChem BioAssay AID328 (DTP/NCI, 2004).
